Measurements published in ChEMBL document CHEMBL4251600, “Bioactive products from singlet oxygen photooxygenation of cannabinoids” (Eur J Med Chem, 2018).
Values after ≈ are worked out from the molar mass of the structure shown.

Legend:
SK-OV-3 = experiment: Anticancer activity against human SKOV3 cells assessed as cell growth inhibition up to 10 ug/ml incubated for 48 hrs by neutral red dye based assay; assay type: functional
Leishmania donovani = experiment: Antileishmanial activity against Leishmania donovani promastigotes incubated for 48 hrs by alamar blue assay; assay type: functional, organism-based; settings: Leishmania donovani, 48 h
Plasmodium falciparum [1] = experiment: Antiplasmodial activity against chloroquine-resistant Plasmodium falciparum W2 infected in red blood cells incubated for 72 hrs by parasite LDH release based colorimetric assay; assay type: functional, organism-based; settings: W2, 72 h
Nakaseomyces glabratus = experiment: Antifungal activity against Candida glabrata by modified CLSI based method; assay type: functional, organism-based
Cryptococcus neoformans = experiment: Antifungal activity against Cryptococcus neoformans by alamar blue assay; assay type: functional, organism-based; settings: Cryptococcus neoformans
Pichia kudriavzevii = experiment: Antifungal activity against Candida krusei by modified CLSI based method; assay type: functional, organism-based; settings: Pichia kudriavzevii; read-out: IC50
LLC-PK1 = experiment: Cytotoxicity against pig LLC-PK1 cells assessed as cell growth inhibition incubated for 48 hrs by neutral red dye based assay; design: species or system Sus scrofa; settings: llc-pk1
Staphylococcus aureus [2] = experiment: Antimicrobial activity against Staphylococcus aureus by modified CLSI based method; assay type: functional, organism-based
Staphylococcus aureus [3] = experiment: Antimicrobial activity against methicillin-resistant Staphylococcus aureus by modified CLSI based method; assay type: functional, organism-based
BT-549 = experiment: Anticancer activity against human BT549 cells assessed as cell growth inhibition up to 10 ug/ml incubated for 48 hrs by neutral red dye based assay; assay type: functional
Plasmodium falciparum [4] = experiment: Antiplasmodial activity against chloroquine-sensitive Plasmodium falciparum D6 infected in red blood cells incubated for 72 hrs by parasite LDH release based colorimetric assay; assay type: functional, organism-based; settings: D6, 72 h
KB = experiment: Anticancer activity against human KB cells assessed as cell growth inhibition up to 10 ug/ml incubated for 48 hrs by neutral red dye based assay; assay type: functional
SK-MEL = experiment: Anticancer activity against human SK-MEL cells assessed as cell growth inhibition incubated for 48 hrs by neutral red dye based assay; assay type: functional

C=C1C[C@H]2C3=C(OC(C)(C)[C@@H]2CC1OO)C(=O)C(CCCCC)=CC3=O (stereo in doubt; 25)
IC50 (SK-OV-3): Not Active
IC50 (Leishmania donovani; read-out: IC50): 2.1 µg/mL (≈ 5.83 µM)
IC90 (Leishmania donovani; read-out: IC90): 11 µg/mL (≈ 30.5 µM)
IC50 (Plasmodium falciparum [1]): 0.9 µg/mL (≈ 2.5 µM)
IC50 (Nakaseomyces glabratus): Not Active
IC50 (Cryptococcus neoformans; read-out: IC50): 1.4 µg/mL (≈ 3.88 µM)
MIC (Cryptococcus neoformans; read-out: MIC): 2.5 µg/mL (≈ 6.94 µM)
IC50 (Pichia kudriavzevii): 17 µg/mL (≈ 47.2 µM)
IC50 (LLC-PK1): 9.9 µg/mL (≈ 27.5 µM)
IC50 (Staphylococcus aureus [2]): 0.91 µg/mL (≈ 2.52 µM)
MIC (Staphylococcus aureus [2]; Staphylococcus aureus, read-out: MIC): 2.5 µg/mL (≈ 6.94 µM)
IC50 (Staphylococcus aureus [3]): 5.78 µg/mL (≈ 16 µM)
MIC (Staphylococcus aureus [3]; Staphylococcus aureus): 10 µg/mL (≈ 27.7 µM)
IC50 (BT-549): Not Active
IC50 (Plasmodium falciparum [4]): 1 µg/mL (≈ 2.77 µM)
IC50 (KB): Not Active
IC50 (SK-MEL): 8.65 µg/mL (≈ 24 µM)
